Eight compounds from patent US9796711B2, “Substituted pyrazolo[3,4-b]pyridin-6-carboxylic acids and method of use” (AbbVie S.àr.l., priority 2015, dated 2017) can be followed below.

The target of assay [1] is T1, ΔF508-CFTR (Homo sapiens, UniProt P13569, DEL508-508).
T1 construct: host or cells: CFBE41o-, doxycycline-inducible
Nature of the assay: CFTR cell surface levels using HRP-tagged ΔF508-CFTR expressing CFBE cells, in the presence of a co-corrector. The format is cell-based. In a few lines: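 Cells were seeded with 0.5 μg/mL doxycycline and held 68 h at 37 °C. Test compounds plus 3 μM co-corrector (final 0.1% DMSO) were then added for 20 h at 33 °C. Washed cells received HRP substrate, and luminescence was normalized between DMSO and 3 μM co-corrector controls.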

The target in assay [2] is T1, ΔF508-CFTR. Nature of the assay: CFTR cell surface levels using HRP-tagged ΔF508-CFTR expressing CFBE cells, intrinsic corrector capacity. The format is cell-based. In outline:
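Here the cells express ΔF508-CFTR with horseradish peroxidase inserted in extracellular loop 4, so only rescued channel at the surface gives luminescent signal. Compounds act on their own, 20 h at the reduced temperature of 33 °C; values are percent activity relative to DMSO and a 3 μM corrector.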

Setting [3] is: HRP-tagged ΔF508-CFTR expressing CFBE cells, in the presence of 3 μM co-corrector.
Setting [4] is: HRP-tagged ΔF508-CFTR expressing CFBE cells, in the presence of 3 μM co-corrector, read-out: EC50.
The mark [5] stands for this setting: HRP-tagged ΔF508-CFTR CFBE41o- cells, compounds alone (intrinsic corrector capacity), 20 hours at 33° C., positive control 3 μM corrector.
The mark [6] stands for this setting: HRP-tagged ΔF508-CFTR CFBE41o- cells, compounds alone (intrinsic corrector capacity), 20 hours at 33° C., read-out: EC50.
[7] abbreviates: HRP-tagged ΔF508-CFTR expressing CFBE cells, intrinsic corrector capacity (no co-corrector), 33° C., 20 hours.
[8] abbreviates: HRP-tagged ΔF508-CFTR expressing CFBE cells, intrinsic corrector capacity (no co-corrector), 33° C., 20 hours, read-out: EC50.

SMILES strings stand for the structures.

T1 sequence (P13569 with tags, fused parts or gaps DEL508-508): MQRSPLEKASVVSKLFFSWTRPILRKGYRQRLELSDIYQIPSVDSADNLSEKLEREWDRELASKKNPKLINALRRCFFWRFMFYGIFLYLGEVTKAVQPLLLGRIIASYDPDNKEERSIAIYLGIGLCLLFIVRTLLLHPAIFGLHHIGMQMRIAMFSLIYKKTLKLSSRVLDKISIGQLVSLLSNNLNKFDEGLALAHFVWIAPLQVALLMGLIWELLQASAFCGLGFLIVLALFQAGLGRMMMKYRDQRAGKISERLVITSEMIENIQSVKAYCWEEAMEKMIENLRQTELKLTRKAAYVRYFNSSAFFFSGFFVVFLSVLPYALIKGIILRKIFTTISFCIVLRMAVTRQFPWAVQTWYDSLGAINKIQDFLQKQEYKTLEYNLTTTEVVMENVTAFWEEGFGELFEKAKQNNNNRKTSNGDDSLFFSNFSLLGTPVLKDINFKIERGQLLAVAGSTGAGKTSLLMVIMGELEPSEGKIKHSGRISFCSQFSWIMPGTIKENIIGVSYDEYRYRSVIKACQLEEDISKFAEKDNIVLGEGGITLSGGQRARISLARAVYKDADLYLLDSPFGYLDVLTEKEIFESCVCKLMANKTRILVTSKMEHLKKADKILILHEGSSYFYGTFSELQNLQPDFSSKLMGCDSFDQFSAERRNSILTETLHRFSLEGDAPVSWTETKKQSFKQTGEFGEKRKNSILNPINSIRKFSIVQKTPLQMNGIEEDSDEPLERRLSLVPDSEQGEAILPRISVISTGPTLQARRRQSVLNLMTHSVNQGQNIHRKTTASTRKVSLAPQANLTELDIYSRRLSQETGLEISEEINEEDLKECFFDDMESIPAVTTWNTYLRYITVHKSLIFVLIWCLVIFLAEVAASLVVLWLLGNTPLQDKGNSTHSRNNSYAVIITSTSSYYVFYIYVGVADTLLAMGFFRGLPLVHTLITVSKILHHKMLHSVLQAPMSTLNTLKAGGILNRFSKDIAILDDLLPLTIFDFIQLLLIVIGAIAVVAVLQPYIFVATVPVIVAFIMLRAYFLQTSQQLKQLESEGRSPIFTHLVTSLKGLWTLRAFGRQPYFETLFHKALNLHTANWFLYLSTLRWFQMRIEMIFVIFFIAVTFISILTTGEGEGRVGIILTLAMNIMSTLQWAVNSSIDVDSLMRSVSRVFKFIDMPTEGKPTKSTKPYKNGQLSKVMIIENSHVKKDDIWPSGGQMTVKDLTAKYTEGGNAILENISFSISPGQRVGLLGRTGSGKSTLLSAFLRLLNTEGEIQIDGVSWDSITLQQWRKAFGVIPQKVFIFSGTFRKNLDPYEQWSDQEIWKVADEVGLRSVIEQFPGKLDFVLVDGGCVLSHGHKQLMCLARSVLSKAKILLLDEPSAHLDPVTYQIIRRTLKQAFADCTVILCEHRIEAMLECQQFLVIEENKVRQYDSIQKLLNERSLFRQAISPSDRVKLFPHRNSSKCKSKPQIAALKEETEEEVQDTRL

`CC(C)c1nn(C2CCCCC2)c2nc(C(=O)O)cc(-c3ccc(N(C)C4CCOCC4)nc3)c12` [compound 169, 1-cyclohexyl-4-{6-[methyl(oxan-4-yl)amino]pyridin-3-yl}-3-(propan-2-yl)-1H-pyrazolo[3,4-b]pyridine-6-carboxylic acid]: the entries for the “% Activation” value on ΔF508-CFTR [1] (setting [3]) and at ΔF508-CFTR [2] (setting [5]) were 436.5% and 217.88%, respectively. The EC50 on ΔF508-CFTR [1] (setting [4]) worked out at 0.302 µM; on ΔF508-CFTR [2] (setting [6]), 0.448 µM.
With `O=C(O)c1cc(N2CCC(CCN3CCOCC3)CC2)c2c(C3CCC3)nn(-c3ccccc3)c2n1` [compound 575, 3-cyclobutyl-4-{4-[2-(morpholin-4-yl)ethyl]piperidin-1-yl}-1-phenyl-1H-pyrazolo[3,4-b]pyridine-6-carboxylic acid], the figures for the EC50 on ΔF508-CFTR [1] and on ΔF508-CFTR [2] were 0.209 µM and 0.512 µM, respectively. Further, the “% Activation” value on ΔF508-CFTR [1] (setting [3]) was found to be 431.9%; on ΔF508-CFTR [2] (setting [7]), 268.4%.
With `COC1CCN(c2cc(C(=O)O)nc3c2c(C(C)C)nn3-c2cccc(C)c2)CC1` [compound 192, 4-(4-methoxypiperidin-1-yl)-1-(3-methylphenyl)-3-(propan-2-yl)-1H-pyrazolo[3,4-b]pyridine-6-carboxylic acid], the “% Activation” value is recorded as 439.45% on ΔF508-CFTR [1] (setting [3]) and 276.92% on ΔF508-CFTR [2] (setting [5]). The EC50 turned out to be 0.274 µM on ΔF508-CFTR [1] (setting [4]) and 0.424 µM on ΔF508-CFTR [2] (setting [6]).
In the case of `CC(C1CCN(c2cc(C(=O)O)nc3c2c(C2CCC2)nn3-c2ccccc2)CC1)N1CCOCC1` (centres unmarked) [compound 683, 3-cyclobutyl-4-{4-[1-(morpholin-4-yl)ethyl]piperidin-1-yl}-1-phenyl-1H-pyrazolo[3,4-b]pyridine-6-carboxylic acid], the figures for the “% Activation” value on ΔF508-CFTR [1] (setting [3]) and at ΔF508-CFTR [2] (setting [7]) were 600.53% and 395.1%, respectively. Besides, the EC50 at ΔF508-CFTR [1] (setting [4]) was 0.0607 µM; on ΔF508-CFTR [2] (setting [8]), 0.141 µM.
For `COCC1CCN(c2cc(C(=O)O)nc3c2c(C(C)C)nn3-c2cccc(C)c2)CC1` [compound 227, 4-[4-(methoxymethyl)piperidin-1-yl]-1-(3-methylphenyl)-3-(propan-2-yl)-1H-pyrazolo[3,4-b]pyridine-6-carboxylic acid], the “% Activation” value is reported as 452.6% at ΔF508-CFTR [1] (setting [3]) and 305.45% on ΔF508-CFTR [2] (setting [5]). The EC50 is 0.34 µM on ΔF508-CFTR [1] (setting [4]) and 0.666 µM on ΔF508-CFTR [2] (setting [6]).
`COCCN1CCN(c2ccc(-c3cc(C(=O)O)nc4c3c(C3CCC3)nn4C3CCCCC3)cn2)CC1` [compound 878, 3-cyclobutyl-1-cyclohexyl-4-{6-[4-(2-methoxyethyl)piperazin-1-yl]pyridin-3-yl}-1H-pyrazolo[3,4-b]pyridine-6-carboxylic acid]: the “% Activation” value on ΔF508-CFTR [1] (setting [3]) is 391.3%; at ΔF508-CFTR [2] (setting [7]), 181.05%. Moreover, the figures for the EC50 at ΔF508-CFTR [1] (setting [4]) and at ΔF508-CFTR [2] (setting [8]) were 0.0996 µM and 0.221 µM, respectively.
As for `CC(C)c1nn(-c2cccc(N3CCCC3)c2)c2nc(C(=O)O)cc(-c3ccc(N4CCC(C#N)CC4)nc3)c12` [compound 222, 4-[6-(4-cyanopiperidin-1-yl)pyridin-3-yl]-3-(propan-2-yl)-1-[3-(pyrrolidin-1-yl)phenyl]-1H-pyrazolo[3,4-b]pyridine-6-carboxylic acid], the figures for the “% Activation” value at ΔF508-CFTR [1] (setting [3]) and on ΔF508-CFTR [2] (setting [5]) were 612.47% and 429.93%, respectively. Further, the EC50 is 0.268 µM at ΔF508-CFTR [1] (setting [4]) and 0.433 µM on ΔF508-CFTR [2] (setting [6]).
For `CO[C@@H]1CCN(CC2CCN(c3cc(C(=O)O)nc4c3c(C3CCC3)nn4-c3ccccc3)CC2)C1` [compound 803, 3-cyclobutyl-4-(4-{[(3R)-3-methoxypyrrolidin-1-yl]methyl}piperidin-1-yl)-1-phenyl-1H-pyrazolo[3,4-b]pyridine-6-carboxylic acid], the entries for the “% Activation” value on ΔF508-CFTR [1] (setting [3]) and at ΔF508-CFTR [2] (setting [7]) were 436% and 229.35%, respectively. In addition, the results for the EC50 at ΔF508-CFTR [1] (setting [4]) and on ΔF508-CFTR [2] (setting [8]) were 0.672 µM and 1.02 µM, respectively.
